# Results: ChEMBL document CHEMBL6109094, “Anti-inflammatory agents design via the fragment hybrid strategy in the discovery of compound c1 for treating ALI and UC” (Eur J Med Chem, 2025)
# Active and inactive are the calls of the source. No cut-off for these calls is given here.
# Tests used:
# [1] = tested on: Mus musculus; assay: Anti-inflammatory activity in C57BL/6 mouse model of DSS-induced ulcerative colitis assessed as decrease in inflammatory cell infiltration in splenic tissue at 20 to 40 mg/kg, po administered for 8 days […]; type: functional, organism-based; conditions: dose 20-40 mg/kg, time 8.0 day
# [2] = molecular target: Interleukin-1 receptor-associated kinase 1 (Homo sapiens) (UniProt P51617); assay: Inhibition of IRAK1 (unknown origin) at 10 uM relative to control
# Interleukin-1 receptor-associated kinase 1 (Homo sapiens), sequence (P51617 whole entry, looked up): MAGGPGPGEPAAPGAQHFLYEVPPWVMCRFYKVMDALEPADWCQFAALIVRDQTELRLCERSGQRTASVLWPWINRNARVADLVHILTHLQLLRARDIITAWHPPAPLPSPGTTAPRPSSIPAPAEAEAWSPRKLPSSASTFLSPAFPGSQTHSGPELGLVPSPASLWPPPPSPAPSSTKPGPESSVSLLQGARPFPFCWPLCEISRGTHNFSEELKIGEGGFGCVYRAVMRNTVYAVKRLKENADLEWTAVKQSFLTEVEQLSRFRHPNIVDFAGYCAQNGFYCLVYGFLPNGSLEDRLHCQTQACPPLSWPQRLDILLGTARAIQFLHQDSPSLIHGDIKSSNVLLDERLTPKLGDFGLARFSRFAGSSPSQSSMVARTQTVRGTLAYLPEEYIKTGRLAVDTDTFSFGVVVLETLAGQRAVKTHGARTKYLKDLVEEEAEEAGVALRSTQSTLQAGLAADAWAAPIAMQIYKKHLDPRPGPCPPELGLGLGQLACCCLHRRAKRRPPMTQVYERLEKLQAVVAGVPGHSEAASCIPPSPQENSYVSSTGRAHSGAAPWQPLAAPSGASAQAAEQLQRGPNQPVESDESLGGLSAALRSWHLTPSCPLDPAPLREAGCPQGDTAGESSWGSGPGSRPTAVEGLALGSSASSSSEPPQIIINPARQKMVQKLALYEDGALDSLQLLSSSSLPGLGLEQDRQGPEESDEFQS
# [3] = tested on: Mus musculus; assay: Anti-inflammatory activity in C57BL/6 mouse model of DSS-induced ulcerative colitis assessed as decrease in serum IL-6 level at 20 to 40 mg/kg, po administered for 8 days by ELISA; type: functional, organism-based; conditions: dose 20-40 mg/kg, time 8.0 day
# [4] = tested on: Mus musculus; assay: Anti-inflammatory activity in C57BL/6 mouse model of DSS-induced ulcerative colitis assessed as colon length at 40 mg/kg, po administered for 8 days (reference value: 5.1 cm); type: functional, organism-based; conditions: time 8.0 day
# [5] = Acute toxicity in C57BL/6 mouse assessed as change in physiological state at 100 to 200 mg/kg, po measured for 10 days; type: organism-based; conditions: in vivo, 240 h, dose 100-200 mg/kg, time 10 day
# [6] = tested on: Mus musculus; assay: Anti-inflammatory activity in C57BL/6 mouse model of LPS-induced ALI assessed as inhibition of TNF-alpha level in BALF at 20 mg/kg, po measured after 6 hrs with administered on every 12 hrs followed by LPS treatment after 30 mins post-compound treatment by ELISA; type: functional, organism-based; conditions: time 6.5 hrs
# [7] = Tmax in Sprague-Dawley rat at 10 mg/kg, po measured for 24 hrs; type: ADME, organism-based; conditions: in vivo
# [8] = tested on: THP-1; assay: cells; conditions: Homo sapiens
# Description: Anti-inflammatory activity in human THP-1 cells assessed as inhibition of LPS-induced IL-6 level preincubated for 30 mins followed by LPS addition measured after 24 hrs by ELISA
# [9] = AUC (0 to t) in Sprague-Dawley rat at 10 mg/kg, po measured for 24 hrs; type: ADME, organism-based; conditions: in vivo
# [10] = Acute toxicity in C57BL/6 mouse assessed as change in pathological change in liver at 100 to 200 mg/kg, po measured for 10 days by H and E staining based analysis; type: organism-based; conditions: in vivo, 240 h, dose 100-200 mg/kg, time 10 day
# [11] = tested on: J774.A1; assay: cells; conditions: Mus musculus
# Description: Anti-inflammatory activity in mouse J774.A1 cells assessed as inhibition of LPS-induced IL-6 level preincubated for 30 mins followed by LPS addition measured after 24 hrs by ELISA
# [12] = tested on: RAW264.7; assay: cells; conditions: Mus musculus
# Description: Anti-inflammatory activity in mouse RAW264.7 cells assessed as inhibition of LPS-induced IL-6 level preincubated for 30 mins followed by LPS addition measured after 24 hrs by ELISA
# [13] = tested on: RAW264.7; assay: Anti-inflammatory activity in mouse RAW264.7 cells assessed as inhibition of LPS-induced TNF-alpha mRNA level preincubated for 2 hrs followed by LPS addition measured after 6 hrs by RT-qPCR analysis; type: functional, cell-based; conditions: dose 1-4 µM, time 8.0 hrs
# [14] = Cmax in Sprague-Dawley rat at 10 mg/kg, po measured for 24 hrs; type: ADME, organism-based; conditions: in vivo
# [15] = tested on: RAW264.7; assay: Inhibition of MAPK signalling pathway in mouse RAW264.7 cells assessed as reduction in JNK phosphorylation at 2.5 uM preincubated for 2 hrs followed by LPS addition measured after 30 mins by Western blot analysis; type: cell-based; conditions: time 2.5 hrs
# [16] = tested on: Mus musculus; assay: Anti-inflammatory activity in C57BL/6 mouse model of DSS-induced ulcerative colitis assessed as colon length at 20 mg/kg, po administered for 8 days (reference value: 5.1 cm); type: functional, organism-based; conditions: time 8.0 day
# [17] = tested on: Mus musculus; assay: Anti-inflammatory activity in C57BL/6 mouse model of LPS-induced ALI assessed as decrease in total cell count in BALF at 20 mg/kg, po measured after 6 hrs with administered on every 12 hrs followed by LPS treatment after 30 mins post-compound treatment; type: functional, organism-based; conditions: time 6.5 hrs
# [18] = tested on: Mus musculus; assay: Anti-inflammatory activity in C57BL/6 mouse model of LPS-induced ALI assessed as inhibition of IL-6 level in BALF at 20 mg/kg, po measured after 6 hrs with administered on every 12 hrs followed by LPS treatment after 30 mins post-compound treatment by ELISA; type: functional, organism-based; conditions: time 6.5 hrs
# [19] = Acute toxicity in C57BL/6 mouse assessed as change in daily activities at 100 to 200 mg/kg, po measured for 10 days; type: organism-based; conditions: in vivo, 240 h, dose 100-200 mg/kg, time 10 day
# [20] = tested on: Mus musculus; assay: Anti-inflammatory activity in C57BL/6 mouse model of LPS-induced ALI assessed as decrease in lung wet to dry ratio at 20 mg/kg, po measured after 6 hrs with administered on every 12 hrs followed by LPS treatment after 30 mins post-compound treatment; type: functional, organism-based; conditions: time 6.5 hrs
# [21] = tested on: Mus musculus; assay: Anti-inflammatory activity in C57BL/6 mouse model of DSS-induced ulcerative colitis assessed as decrease in hyperplasia in white pulp of spleen administered orally for 8 days; type: functional, organism-based; conditions: dose 20-40 mg/kg, route po, time 8.0 day
# [22] = tested on: Mus musculus; assay: Anti-inflammatory activity in C57BL/6 mouse model of LPS-induced ALI assessed as inhibition of TNF-alpha level in serum at 20 mg/kg, po measured after 6 hrs with administered on every 12 hrs followed by LPS treatment after 30 mins post-compound treatment by ELISA; type: functional, organism-based; conditions: time 6.5 hrs
# [23] = molecular target: T1, Interleukin-1 receptor-associated kinase 4 (Homo sapiens) (UniProt Q9NWZ3); assay: Inhibition of IRAK4 (unknown origin) at 10 uM relative to control
# T1 sequence (whole entry): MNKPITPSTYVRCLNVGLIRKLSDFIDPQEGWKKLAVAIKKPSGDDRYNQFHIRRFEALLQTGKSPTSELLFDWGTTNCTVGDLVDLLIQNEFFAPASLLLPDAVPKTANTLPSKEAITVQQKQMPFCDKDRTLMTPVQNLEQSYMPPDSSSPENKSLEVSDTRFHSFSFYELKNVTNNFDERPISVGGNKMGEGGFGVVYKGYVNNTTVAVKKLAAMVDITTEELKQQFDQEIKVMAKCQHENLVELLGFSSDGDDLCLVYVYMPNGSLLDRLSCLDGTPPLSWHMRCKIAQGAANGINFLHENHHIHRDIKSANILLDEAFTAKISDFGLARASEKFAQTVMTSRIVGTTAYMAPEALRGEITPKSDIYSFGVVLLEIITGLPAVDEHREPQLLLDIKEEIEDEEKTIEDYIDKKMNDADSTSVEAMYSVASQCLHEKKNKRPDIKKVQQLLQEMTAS
# [24] = Acute toxicity in C57BL/6 mouse assessed as change in pathological change in kidney at 100 to 200 mg/kg, po measured for 10 days by H and E staining based analysis; type: organism-based; conditions: in vivo, 240 h, dose 100-200 mg/kg, time 10 day
# [25] = tested on: Mus musculus; assay: Anti-inflammatory activity in C57BL/6 mouse model of DSS-induced ulcerative colitis assessed as decrease in DAI score at 20 to 40 mg/kg, po administered for 8 days; type: functional, organism-based; conditions: dose 20-40 mg/kg, time 8.0 day
# [26] = tested on: Mus musculus; assay: Anti-inflammatory activity in C57BL/6 mouse model of DSS-induced ulcerative colitis assessed as decrease in spleen weight at 20 to 40 mg/kg, po administered for 8 days; type: functional, organism-based; conditions: dose 20-40 mg/kg, time 8.0 day
# [27] = tested on: Mus musculus; assay: Anti-inflammatory activity in C57BL/6 mouse model of DSS-induced ulcerative colitis assessed as decrease in inflammatory cell infiltration in colonic tissue at 20 to 40 mg/kg, po administered for 8 days […]; type: functional, organism-based; conditions: dose 20-40 mg/kg, time 8.0 day
# [28] = tested on: RAW264.7; assay: Inhibition of MAPK signalling pathway in mouse RAW264.7 cells assessed as reduction in p38 phosphorylation at 2.5 uM preincubated for 2 hrs followed by LPS addition measured after 30 mins by Western blot analysis; type: cell-based; conditions: time 2.5 hrs
structure (smiles),measurement,setting,value
COc1cc2c(O[C@H]3CC[C@@H](N)CC3)ncnc2cc1OCc1cccc(Br)c1,Activity,[1],Active
same,inhibition,[2],88.2%
same,Activity,[3],Active; Activity Was Comparable To 5-Asa
same,Activity,[4],Active
same,Activity,[5],Non-toxic
same,inhibition,[6],Active
same,Tmax,[7],2 h
same,IC50,[8],960 nM
same,AUC(0-t) at 24 h,[9],4270 ng·h/mL
same,Activity,[10],Non-toxic
same,IC50,[11],1500 nM
same,IC50,[12],480 nM
same,inhibition,[13],Dose-dependent-effect
same,Cmax,[14],856 ng/mL
same,inhibition,[15],Active
same,Activity,[16],Active
same,Activity,[17],Active
same,inhibition,[18],Active
same,Activity,[19],Non-toxic
same,Activity,[20],Active
same,Activity,[21],Dose-dependent-effect
same,inhibition,[22],Active
same,inhibition,[23],100%
same,Activity,[24],Non-toxic
same,Activity,[25],Active
same,Activity,[26],Active; Activity Was Comparable To 5-Asa
same,Activity,[27],Active
same,inhibition,[28],Active
